# According to publication PMC4579271, “Inflammatory Signaling by NOD-RIPK2 Is Inhibited by Clinically Relevant Type II Kinase Inhibitors” (Chemistry & Biology, 2015):
# Assays:
# [1] = tested on: IκBα degradation in THP-1 cells; assay: Immunoblot of IκBα in L18-MDP-stimulated THP-1 cells; type: cell-based, human; settings: 100 nM pre-treatment, 200 ng/ml L18-MDP
# Description: Figure 5 Inhibition of NOD2-Dependent Ubiquitination and Signaling (A–C) THP-1 cells were pre-treated with kinase inhibitors or DMSO for 30 min and stimulated with 200 ng/ml L18-MDP (A, B) or TNF (C) as indicated. At the indicated time points, cells were lysed and ubiquitinated proteins were isolated using TUBE reagent. The isolated ubiquitinated proteins and input material were analyzed by immunoblotting. See also Figure S6.
# The ubiquitin conjugates were purified using GST-Tandem Ubiquitin Binding Entities (TUBE; [Fiil et al., 2013]). In brief, treated THP-1 cells (6–10 × 10^6) were washed with PBS and lysed in 400 μl of ice-cold lysis buffer containing TUBE on ice for 30 min. Cleared lysates were incubated with Glutathione Sepharose 4B resin (Amersham) with agitation at 4°C overnight. The beads were washed four times with PBS-Tween (0.1%) and the bound proteins were released by heating the beads in reducing SDS sample buffer. The samples were resolved on pre-cast gradient gels (NuPage; Life Technologies) in MOPS running buffer and subjected to immunoblotting.
# [2] = tested on: LPS and Pam3CSK4 responses in RAW264.7 cells; assay: qRT-PCR of Toll-like receptor-dependent inflammatory gene expression in RAW264.7 cells (LPS, Pam3CSK4); type: cell-based, mouse; settings: 100 nM
# Description: Figure 6 Inhibition of NOD-Dependent Inflammatory Gene Expression in RAW264.7 Cells (A and B) Cells were pre-treated with 1, 10, or 100 nM inhibitors for 30 min and stimulated with 10 μg/ml MDP (A) or Tri-DAP (B) for 18–24 hr in triplicate. RNA samples were isolated and changes in gene expression were analyzed using gene-specific primers using SYBR qRT-PCR. All values were normalized to the levels of GAPDH. (C and D) Lack of inhibition of Toll-like receptor-dependent inflammatory gene expression in RAW264.7 cells. Experiments were performed as described above, except cells were stimulated with 10 ng/ml E. coli LPS (C) or 500 ng/ml Pam3CSK4 (D). All experiments were performed in triplicate; error bars indicate SD values.
# 40C centrifuge at 14,000 rpm for 15 min to collect lysates. Protein concentrations were measured using […] protein assay reagent (Pierce). […]
# For ADPGlo (Promega) assays, 1 ng Abl or 10 ng of RIPK2 was diluted in reaction buff er (40 mM Tris-HCl pH 7.5, 20 mM MgCl2, 0.5 m M DTT, 0.01% BSA) supplemented with 50 µM ATP and 10-point dose range of inhibitors. […] Luminescent signal was generated by addition of 10 µL of kinase detection reagent for 30 minutes at room temperature and determined using Victor3V platereader (Perkin Elmer). Specific signal was calculated by subtracting values in the wells without protein and inhibitor from the values in the test wells. […]
# [3] = tested on: NF-κB activation in U2OS cells; assay: NF-κB dual luciferase reporter assay in U2OS cells overexpressing HA-NOD2; settings: 100 nM, 24 hr
compound,measurement,setting,value
"Cc1ccc(C(=O)Nc2ccc(CN3CCN(C)CC3)c(C(F)(F)F)c2)cc1C#Cc1cnc2cccnn12 [ponatinib, 3-[2-(imidazo[1,2-b]pyridazin-3-yl)ethynyl]-4-methyl-N-{4-[(4-methylpiperazin-1-yl)methyl]-3-(trifluoromethyl)phenyl}benzamide]",downstream degradation of IκBα,[1],blocked
same,LPS and Pam3CSK4 responses,[2],partially attenuated
same,NF-κB activation,[3],completely disabled
